Earlier results as cited in paper PMC3426641 (Biochemistry, 2012).
Like-named read-outs stand apart in the source and are kept apart here.

What was measured:
[1] = biological target: T1, Eis_Mtb (Mycobacterium tuberculosis, UniProt P9WFK7); conditions: cited from earlier work
[2] = biological target: T1, Eis_Mtb; conditions: TLC and NMR spectroscopy; cited from earlier work
[3] = number of acetylations per AG, previously reported

T1 sequence (P9WFK7 whole entry): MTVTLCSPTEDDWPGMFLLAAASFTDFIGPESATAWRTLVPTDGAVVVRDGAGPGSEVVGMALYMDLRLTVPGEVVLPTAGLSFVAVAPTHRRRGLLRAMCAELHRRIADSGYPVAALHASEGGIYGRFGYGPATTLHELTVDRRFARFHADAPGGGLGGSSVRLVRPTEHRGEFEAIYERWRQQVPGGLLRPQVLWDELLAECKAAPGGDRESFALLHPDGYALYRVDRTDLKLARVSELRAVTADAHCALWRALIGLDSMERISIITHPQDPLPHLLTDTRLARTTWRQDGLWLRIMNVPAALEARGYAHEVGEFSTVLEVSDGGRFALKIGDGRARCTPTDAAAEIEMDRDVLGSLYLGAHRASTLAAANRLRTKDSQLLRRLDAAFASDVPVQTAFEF

Row | Molecule | level of acetylation by Eis from M. tuberculosis [1, 3] | positions acetylated (regio-specificity) [2] | level of acetylation by Eis from M. tuberculosis [1]
1 | NCC[C@H](O)C(=O)N[C@@H]1C[C@H](N)[C@@H](O[C@H]2O[C@H](CN)[C@@H](O)[C@H](O)[C@H]2O)[C@H](O)[C@H]1O[C@H]1O[C@H](CO)[C@@H](O)[C@H](N)[C@H]1O [AMK, amikacin] | tri-acetylated | – | –
2 | CN[C@@H]1[C@@H](O[C@H]2O[C@H](CO)[C@@H](N)[C@H](O)[C@H]2O)OC2C[C@@H](N)[C@@H](O[C@H]3[C@H](O)[C@@H](O)[C@H](N)C[C@@H]3N)OC2[C@@H]1O (some centres unmarked) [APR, apramycin] | could not chemically modify | – | –
3 | CN[C@@H]1C[C@H](N)[C@@H](O)[C@H](O[C@H]2O[C@H](CO)[C@H](O)[C@@H]3O[C@@]4(O[C@@H]23)O[C@H]([C@H](N)CO)[C@H](O)[C@H](O)[C@H]4O)[C@H]1O [HYG, hygromycin] | di-acetylated | – | –
4 | NC[C@H]1O[C@H](O[C@H]2[C@H](O)[C@@H](O)[C@H](N)C[C@@H]2N)[C@H](N)[C@@H](O)[C@@H]1O [NEA, neamine] | tri-acetylated | first at the 2′-, then at the 6′-, and finally at the 1-position | –
5 | NC[C@@H]1O[C@H](O[C@H]2[C@@H](O)[C@H](O[C@@H]3[C@@H](O)[C@H](N)C[C@H](N)[C@H]3O[C@H]3O[C@H](CN)[C@@H](O)[C@H](O)[C@H]3N)O[C@@H]2CO)[C@H](N)[C@@H](O)[C@@H]1O [NEO, neomycin B] | tri-acetylated | – | –
6 | CCN[C@@H]1C[C@H](N)[C@@H](O[C@H]2OC(CN)=CC[C@H]2N)[C@H](O)[C@H]1O[C@H]1OC[C@](C)(O)[C@H](NC)[C@H]1O [NET, netilmicin] | di-acetylated | – | –
7 | NC[C@@H]1O[C@H](O[C@H]2[C@@H](O)[C@H](O[C@@H]3[C@@H](O)[C@H](N)C[C@H](N)[C@H]3O[C@H]3O[C@H](CO)[C@@H](O)[C@H](O)[C@H]3N)O[C@@H]2CO)[C@H](N)[C@@H](O)[C@@H]1O [PAR, paromomycin] | di-acetylated | – | –
8 | NC[C@H]1O[C@H](O[C@H]2[C@H](O[C@@H]3O[C@H](CO)[C@@H](O)[C@H]3O)[C@@H](O)[C@H](N)C[C@@H]2N)[C@H](N)[C@@H](O)[C@@H]1O [RIB, ribostamycin] | tri-acetylated | – | –
9 | CN[C@@H]1[C@@H](O)[C@@H](O[C@@H]2[C@@H](O)[C@H](O[C@H]3OC(CN)=CC[C@H]3N)[C@@H](N)C[C@H]2N)OC[C@]1(C)O [SIS, sisomicin] | tri-acetylated | – | –
10 | CN[C@@H]1[C@H](O)[C@H](NC)[C@H]2O[C@@]3(O)C(=O)C[C@@H](C)O[C@H]3O[C@@H]2[C@H]1O [SPT, spectinomycin] | not modified | – | –
11 | [H]/N=C(/N)N[C@H]1[C@H](O)[C@@H](O)[C@H](O[C@@H]2O[C@@H](C)[C@](O)(C=O)[C@H]2O[C@@H]2O[C@@H](CO)[C@H](O)[C@@H](O)[C@@H]2NC)[C@@H](N/C(N)=N\[H])[C@@H]1O [STR, streptomycin] | not modified | – | –
12 | NC[C@H]1O[C@H](O[C@H]2[C@H](O)[C@@H](O[C@H]3O[C@H](CO)[C@@H](O)[C@H](N)[C@H]3O)[C@H](N)C[C@@H]2N)[C@H](N)C[C@@H]1O [TOB, tobramycin] | tetra-acetylated | – | –
13 | kanamycin A | – | – | di-acetylated
